According to ChEMBL document CHEMBL5325450, “Bisabolane-Type Sesquiterpenoids with a Tetrahydrofuran or Tetrahydropyran Ring from Vernonia solanifolia” (J Nat Prod, 2023):
Activity calls are given as the source filed them. The rule behind the calls is not given here.

What was measured:
RAW264.7 [1] = assay: Anti-inflammatory activity against mouse RAW264.7 cells assessed as inhibition of LPS-induced NO production at 80 uM pre-incubated for 1 hr followed by compound addition and measured after 18 hrs by Griess reagent based analysis; assay type: functional, cell-based; conditions: time 19.0 hrs
THP-1 = assay: Anti-inflammatory activity against LPS-induced human THP-1 cells assessed as reduction in iNOS protein expression by Western blot analysis; assay type: functional, cell-based; conditions: dose 20-80 µM
[2] = molecular target: T1, Nuclear factor NF-kappa-B complex (Homo sapiens) (UniProt Q00653+P19838+Q04206); assay: Inhibition of NFkappaB signaling pathway in LPS-induced human THP-1 cells assessed as reduction in IkappaBalpha phosphorylation by Western blot analysis; assay type: cell-based
T1 sequence (P19838 whole entry, looked up): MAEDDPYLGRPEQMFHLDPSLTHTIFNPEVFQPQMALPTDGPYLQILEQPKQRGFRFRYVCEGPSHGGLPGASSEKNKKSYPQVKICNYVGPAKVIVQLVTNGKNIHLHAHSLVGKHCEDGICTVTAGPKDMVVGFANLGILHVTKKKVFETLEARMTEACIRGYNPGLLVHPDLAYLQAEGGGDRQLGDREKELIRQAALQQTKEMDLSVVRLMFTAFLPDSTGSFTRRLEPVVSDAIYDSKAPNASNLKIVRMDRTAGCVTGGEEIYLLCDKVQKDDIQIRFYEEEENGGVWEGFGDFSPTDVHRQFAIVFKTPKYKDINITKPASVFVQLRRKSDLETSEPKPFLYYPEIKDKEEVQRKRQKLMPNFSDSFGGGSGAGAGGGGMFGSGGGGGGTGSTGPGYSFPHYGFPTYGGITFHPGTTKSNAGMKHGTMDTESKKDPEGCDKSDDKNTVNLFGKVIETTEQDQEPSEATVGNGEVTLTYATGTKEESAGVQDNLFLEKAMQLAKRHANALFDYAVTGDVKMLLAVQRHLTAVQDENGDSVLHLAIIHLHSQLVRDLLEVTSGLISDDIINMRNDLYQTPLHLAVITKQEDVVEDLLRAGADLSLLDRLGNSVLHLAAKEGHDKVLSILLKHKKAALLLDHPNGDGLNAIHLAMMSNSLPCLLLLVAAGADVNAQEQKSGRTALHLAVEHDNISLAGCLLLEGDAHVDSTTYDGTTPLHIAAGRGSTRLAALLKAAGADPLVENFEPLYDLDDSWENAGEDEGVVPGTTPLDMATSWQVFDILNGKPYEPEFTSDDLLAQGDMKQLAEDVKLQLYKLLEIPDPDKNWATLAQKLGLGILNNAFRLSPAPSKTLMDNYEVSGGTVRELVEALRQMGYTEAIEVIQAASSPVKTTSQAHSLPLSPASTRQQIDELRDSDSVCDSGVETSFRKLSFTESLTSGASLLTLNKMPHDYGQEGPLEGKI
T1 sequence (Q00653 whole entry, looked up): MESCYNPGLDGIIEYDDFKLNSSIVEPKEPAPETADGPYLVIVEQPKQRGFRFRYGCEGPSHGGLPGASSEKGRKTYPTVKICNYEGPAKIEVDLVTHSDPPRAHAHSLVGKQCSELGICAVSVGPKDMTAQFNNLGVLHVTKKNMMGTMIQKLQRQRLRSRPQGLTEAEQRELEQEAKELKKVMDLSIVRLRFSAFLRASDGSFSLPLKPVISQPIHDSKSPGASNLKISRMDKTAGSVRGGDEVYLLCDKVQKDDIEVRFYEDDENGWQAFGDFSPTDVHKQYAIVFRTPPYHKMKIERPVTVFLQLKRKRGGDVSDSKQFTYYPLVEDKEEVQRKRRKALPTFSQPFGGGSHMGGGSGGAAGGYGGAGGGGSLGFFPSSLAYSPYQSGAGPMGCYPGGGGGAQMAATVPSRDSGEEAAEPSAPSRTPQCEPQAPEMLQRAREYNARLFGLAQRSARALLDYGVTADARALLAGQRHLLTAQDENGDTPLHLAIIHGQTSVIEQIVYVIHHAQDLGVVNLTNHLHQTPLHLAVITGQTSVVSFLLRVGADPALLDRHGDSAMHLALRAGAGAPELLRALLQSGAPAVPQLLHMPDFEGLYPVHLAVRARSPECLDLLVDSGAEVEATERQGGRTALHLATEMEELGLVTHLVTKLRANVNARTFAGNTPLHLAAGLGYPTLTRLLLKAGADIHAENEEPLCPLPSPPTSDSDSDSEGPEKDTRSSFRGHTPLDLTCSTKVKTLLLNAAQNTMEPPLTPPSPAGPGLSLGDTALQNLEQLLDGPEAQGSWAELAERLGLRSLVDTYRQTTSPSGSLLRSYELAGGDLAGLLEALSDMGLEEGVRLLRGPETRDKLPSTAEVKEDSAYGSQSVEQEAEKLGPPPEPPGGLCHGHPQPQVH
T1 sequence (Q04206 whole entry, looked up): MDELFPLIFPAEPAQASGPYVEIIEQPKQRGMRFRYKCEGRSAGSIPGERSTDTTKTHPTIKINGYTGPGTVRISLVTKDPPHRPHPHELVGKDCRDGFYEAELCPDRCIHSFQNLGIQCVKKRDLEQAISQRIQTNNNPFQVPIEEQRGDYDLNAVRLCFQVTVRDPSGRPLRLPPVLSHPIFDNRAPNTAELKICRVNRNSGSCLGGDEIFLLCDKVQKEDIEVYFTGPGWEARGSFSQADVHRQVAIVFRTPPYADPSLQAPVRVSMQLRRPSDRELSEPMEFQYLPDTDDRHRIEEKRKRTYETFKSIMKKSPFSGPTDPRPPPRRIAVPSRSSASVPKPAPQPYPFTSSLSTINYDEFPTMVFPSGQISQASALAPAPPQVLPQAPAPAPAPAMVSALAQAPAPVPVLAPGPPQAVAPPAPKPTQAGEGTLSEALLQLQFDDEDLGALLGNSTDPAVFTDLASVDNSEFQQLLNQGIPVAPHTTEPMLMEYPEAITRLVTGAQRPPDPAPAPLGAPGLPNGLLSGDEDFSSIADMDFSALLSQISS

RAW264.7 [3] = assay: Anti-inflammatory activity against mouse RAW264.7 cells assessed as reduction in LPS-induced NO production pre-incubated for 1 hr followed by compound addition and measured after 18 hrs by Griess reagent based analysis; assay type: functional, cell-based; conditions: dose 5-80 µM, time 19.0 hrs
[4] = molecular target: T1, Nuclear factor NF-kappa-B complex (Homo sapiens); assay: Inhibition of NFkappaB signaling pathway in LPS-induced human THP-1 cells assessed as reduction in p65 phosphorylation by Western blot analysis; assay type: cell-based
[5] = molecular target: T1, Nuclear factor NF-kappa-B complex (Homo sapiens); assay: Inhibition of NFkappaB signaling pathway in LPS-induced human THP-1 cells assessed as reduction in IKKalpha/beta phosphorylation by Western blot analysis; assay type: cell-based
RAW264.7 [6] = assay: Cytotoxicity against mouse RAW264.7 cells assessed as reduction in cell viability upto 80 uM measured after 24 hrs by MTT assay; assay type: toxicity, cell-based; conditions: raw264.7, 24 h

- inhibition [2]: Active
- inhibition [4]: Active
- inhibition [5]: Active
SMILES: C[C@](O)(CO)[C@@H]1CC[C@@](C)([C@@H]2CC=C(C(=O)O)CC2)O1
- Activity (RAW264.7 [1]): Active
- Activity (THP-1): Dose-Dependent Effect
- Activity (RAW264.7 [3]): Dose-Dependent Effect
- Activity (RAW264.7 [6]): Non-Toxic
